Measured values reported in US20130337564A1, “Treatment of Pluripotent Cells” (Janssen Biotech, Inc., priority 2012, published 2013).
“And” between values parts separate entries of the source, which are not always exact repeats. Equal entries are not always repeated.

How the values were obtained:
[1] = test system: HNF-3beta expression in human embryonic stem cells (H9 line); assay: High content screening assay: HNF-3beta protein expression (differentiation); type: cell-based; conditions: for HNF3β Expression, Fold over Wnt 3a/AA control / fold induction at 10 µM: 10 μM test compound with 100 ng/ml activin A on days 1-2, H9, total intensity by IN Cell Analyzer, strong and moderate hits; for HNF-3b Expression Fold over Wnt 3a/AA control: total intensity normalised to Wnt 3a/AA control; for fold induction at 10 µM: Homo sapiens, Embryonic stem cell, read-out: HNF3β Expression, Fold over Wnt 3a/AA control
Summary of the method: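 H9 hESCs on MATRIGEL treated days 1-2 with 10 μM compound in DMEM:F12, 0.5% FCS, 100 ng/ml activin A; days 3-4 with 2% FCS plus activin A without compound. Fixed cells immunostained for Sox17 or HNF-3beta with Draq5 nuclear counterstain. Cell number and staining intensity quantified by high-content imaging, 12 fields/well.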

[2] = test system: human embryonic stem cells (H9 or H1 lines); assay: Plate reader (MTS) proliferation assay; type: cell-based; conditions: for activity at 10 µM: Homo sapiens, Embryonic stem cell, 96 h; for activity at 10 µM / % Control Value (proliferation): 10 μM test compound with 100 ng/ml activin A on days 1-2, MTS OD490 on day 4, vs Activin A/Wnt3a positive control, strong and moderate hits; for Average: average of replicate raw data; for Raw Data: replicate wells, plate reader proliferation screen of GSK-3B inhibitors; for Average (of Raw Data): plate reader raw signal, mean of replicate wells
Summary of the method: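 H9 or H1 cells on Matrigel, washed, then given DMEM:F12 with 0.5% FCS, 100 ng/ml activin A and 10 μM compound (days 1–2), then 2% FCS plus activin A (days 3–4). MTS added day 4, OD490 read after 1.5–4 h at 37 °C; triplicates as percent of activin A/Wnt3a control.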

[3] = relative to AA/Wnt3a/DMSO positive control (100.0) of the same plate
[4] = proliferation of human embryonic stem cells
[5] = proliferation of human embryonic stem cells, AA/Wnt3a = 100.0, no cells = 0.0

Compound	HNF-3b Expression Total Intensity [1]	activity at 10 µM [2] [%]	Average [2]	HNF3β Expression, Fold over Wnt 3a/AA control [1]	HNF-3b Expression Fold over Wnt 3a/AA control [1] [fold]	% Control Value (proliferation) [2] [%]	Raw Data [2]	% Control [2, 3] [%]	Average (of Raw Data) [2, 4]	% Control [2, 5] [%]	fold induction at 10 µM [1]
COC(=O)c1cncc(-n2cc(C3=C(c4nn(CCO)c5ccccc45)C(=O)NC3=O)c3cc(Cl)ccc32)c1 [Compound 150, Methyl 5-(5-chloro-3-{4-[1-(2-hydroxyethyl)-1H-indazol-3-yl]-2,5-dioxo-2,5-dihydro-1H-pyrrol-3-yl}-1H-indol-1-yl)pyridine-3-carboxylate]	288075000	63.3	0.9475								
OCCC#Cc1nc(-c2ccc(F)cc2)c(-c2ccncc2)n1CCCc1ccccc1 [Compound 158, 4-[4-(4-Fluorophenyl)-1-(3-phenylpropyl)-5-pyridin-4-yl-1H-imidazol-2-yl]but-3-yn-1-ol]	269025000	84.7	1.2242								
O=C1NC(=O)C2=C1c1cn(c3ccccc13)CCOCCOCCOCCn1cc2c2ccccc21 [Compound 163, 6,7,9,10,12,13,15,16-Octahydro-23H-5,26:17,22-di(metheno)dibenzo[k,q]pyrrolo[3,4-n][1,4,7,10,19]trioxadiazacyclohenicosine-23,25(24H)-dione]	85245671		1.3242	3.1115 Fold over Wnt 3a/AA control	3.1115	142.3	1.3764 and 1.2753 and 1.3208				
O=C1NC(=O)C2=C1c1cn(c3ccccc13)CCOCCOCCn1cc2c2ccccc21 [Compound 164, 6,7,9,10,12,13-Hexahydro-20H-5,23:14,19-di(metheno)dibenzo[h,n]pyrrolo[3,4-k][1,4,7,16]dioxadiazacyclooctadecine-20,22(21H)-dione]	1300640		0.6350		0.0475	68.2	0.6923 and 0.5994 and 0.6134				
O=C1NC(=O)C2=C1c1cn(c3ccccc13)CCOCCOCCOCCOCCn1cc2c2ccccc21 [Compound 165, 10,11,13,14,16,17,19,20,22,23-Decahydro-1H-9,4:24,29-di(metheno)dibenzo[n,t]pyrrolo[3,4-q][1,4,7,10,13,22]tetraoxadiazacyclotetracosine-1,3(2H)-dione]	149772525		1.8175	5.4668 Fold over Wnt 3a/AA control	5.4668	195.3	1.7896 and 1.4721 and 2.1908				
O=C(Nc1ccc(C(=O)N2CC3CSCCN3Cc3ccccc32)c(Cl)c1)c1cc(Cl)cc(Cl)c1 (stereo not drawn) [Compound 166, 3,5-Dichloro-N-[3-chloro-4-(3,4,12,12a-tetrahydro-1H-[1,4]thiazino[3,4-c][1,4]benzodiazepin-11(6H)-ylcarbonyl)phenyl]benzamide]	10743082	180	1.6794								
O=C1NC(=O)C2=C1c1cn(c3ncccc13)CCOCCOCCOCCOCCOCCn1cc2c2cccnc21 [Compound 168, 10,11,13,14,16,17,19,20,22,23,25,26-Dodecahydro-1H-9,4:27,32-di(metheno)dipyrido[2,3-q:3′,2′-w]pyrrolo[3,4-t][1,4,7,10,13,16,25]pentaoxadiazacycloheptacosine-1,3(2H)-dione]	2584708		0.3421		0.0943		0.3702 and 0.3193 and 0.3368	36.8			
O=C1NC(=O)C2=C1c1cn(c3ncccc13)CCOCCOCCOCCOCCn1cc2c2cccnc21 [Compound 169]			0.7138	0.9520 Fold over Wnt 3a/AA control		76.7	0.5876 and 0.6384 and 0.9154		0.3354	24.4	
CN(C)CCCn1cc(C2=C(c3cccc4ccccc34)C(=O)NC2=O)c2cccnc21 [Compound 175, 3-{1-[3-(Dimethylamino)propyl]-1H-pyrrolo[2,3-b]pyridin-3-yl}-4-naphthalen-1-yl-1H-pyrrole-2,5-dione]	1605538		0.1467								
O=C1NC(=O)C2=C1c1cn(c3ncccc13)CCOCCOCCn1cc2c2cccnc21 [Compound 180, 6,7,9,10,12,13-Hexahydro-20H-5,23:14,19-di(metheno)dipyrido[2,3-h:3′,2′-n]pyrrolo[3,4-k][1,4,7,16]dioxadiazacyclooctadecine-20,22(21H)-dione]	101114		0.1247		0.0037		0.1239 and 0.1233 and 0.1269	13.4	0.3793	29.3	
O=C1NC(=O)C(c2cn(CCCO)c3ncccc23)=C1c1cn(CCCO)cn1 [Compound 182, 3-[1-(3-Hydroxypropyl)-1H-imidazol-4-yl]-4-[1-(3-hydroxypropyl)-1H-pyrrolo[2,3-b]pyridin-3-yl]-1H-pyrrole-2,5-dione]	8880858		0.2828								
O=C1NC(=O)C(c2cn(CCCO)c3ncccc23)=C1c1cn(CCO)cn1 [Compound 183, 3-[1-(2-Hydroxyethyl)-1H-imidazol-4-yl]-4-[1-(3-hydroxypropyl)-1H-pyrrolo[2,3-b]pyridin-3-yl]-1H-pyrrole-2,5-dione]	170177		0.2321								
O=C1NC(=O)C(c2cn(CCCO)c3ncccc23)=C1c1ccn(CCCO)n1 [Compound 185, 3-[1-(3-Hydroxypropyl)-1H-pyrazol-3-yl]-4-[1-(3-hydroxypropyl)-1H-pyrrolo[2,3-b]pyridin-3-yl]-1H-pyrrole-2,5-dione]			0.2632								0.865
CN(CCO)CCCn1nc(C2=C(c3cn(-c4cccnc4)c4ccccc34)C(=O)NC2=O)c2ccccc21 [Compound 198, 3-(1-{3-[(2-Hydroxyethyl)(methyl)amino]propyl}-1H-indazol-3-yl)-4-(1-pyridin-3-yl-1H-indol-3-yl)-1H-pyrrole-2,5-dione]	61161468	70.7	1.1253								
O=C1NC(=O)C(c2cn(-c3cccnc3)c3ccccc23)=C1c1cn(CCO)c2ccccc12 [Compound 206, 3-[1-(2-Hydroxyethyl)-1H-indol-3-yl]-4-(1-pyridin-3-yl-1H-indol-3-yl)-1H-pyrrole-2,5-dione]	309900000	108	1.7251								1.66
Cn1ccc(C2=C(c3cn(CCCO)c4ncccc34)C(=O)NC2=O)n1 [Compound 209]	143916667	67.4	1.0739								0.772
COc1ccccc1C1=C(c2cn(-c3cccnc3)c3ccccc23)C(=O)NC1=O [Compound 216, 3-[2-(Methyloxy)phenyl]-4-(1-pyridin-3-yl-1H-indol-3-yl)-1H-pyrrole-2,5-dione]	306520000	76.9	1.1235								
Cc1c[nH]c(-c2cnc(NCCNc3ccc(C#N)cn3)nc2-c2ccc(Cl)cc2Cl)n1 [Compound 221, 6-[(2-{[4-(2,4-Dichlorophenyl)-5-(4-methyl-1H-imidazol-2-yl)pyrimidin-2-yl]amino}ethyl)amino]pyridine-3-carbonitrile]	1281000000	131	1.8228						0.4291		1.16
CC(C)(O)CCn1nc(C2=C(c3cn(-c4cccnc4)c4ccccc34)C(=O)NC2=O)c2ccccc21 [Compound 223, 3-[1-(3-Hydroxy-3-methylbutyl)-1H-indazol-3-yl]-4-(1-pyridin-3-yl-1H-indol-3-yl)-1H-pyrrole-2,5-dione]	540725000	129	1.7982								
O=C1NC(=O)C(c2nn(CCO)c3ccccc23)=C1c1cn(-c2cncnc2)c2ccccc12 [Compound 226, 3-[1-(2-Hydroxyethyl)-1H-indazol-3-yl]-4-(1-pyrimidin-5-yl-1H-indol-3-yl)-1H-pyrrole-2,5-dione]	329425000	120	1.6825								
O=C1NC(=O)C(c2cn(-c3cncnc3)c3ccccc23)=C1c1cn(CCO)c2ccccc12 [Compound 230, 3-[1-(2-Hydroxyethyl)-1H-indol-3-yl]-4-(1-pyrimidin-5-yl-1H-indol-3-yl)-1H-pyrrole-2,5-dione]	1052345000	147	2.0358								0.95
